From PMC12221116, “Novel Quinazolinones Active against Multidrug‐Resistant Mycobacterium Tuberculosis: Synthesis, Antimicrobial Evaluation, and in Silico Exploration of Penicillin‐Binding Protein 1A as a Potential Target” (Chemmedchem, 2025)
Values after ≈ are worked out from the molar mass of the structure shown. Read-outs that look alike come from different tables or passages of the source.

Key:
[1] = test system: Mtb H37Ra; experiment: Microdilution broth resazurin assay, MIC; type: cell-based, Mycobacterium tuberculosis
[2] = test system: M. aurum; experiment: Microdilution broth resazurin assay, MIC; type: cell-based, Mycolicibacterium aurum
[3] = test system: M. smegmatis; experiment: Microdilution broth resazurin assay, MIC; type: cell-based, Mycolicibacterium smegmatis
[4] = test system: M. kansasii; experiment: Microplate Alamar Blue assay, MIC; type: cell-based, Mycobacterium kansasii; settings: for MIC: Mycobacterium kansasii, read-out: Antimycobacterial Activity MIC M. kans.
[5] = test system: M. avium; experiment: Microdilution broth resazurin assay, MIC; type: cell-based, Mycobacterium avium
[6] = test system: Mtb H37Rv; experiment: Microplate Alamar Blue assay, MIC; type: cell-based, Mycobacterium tuberculosis; settings: for MIC: Mycobacterium tuberculosis, H37RV
[7] = Mycobacterium tuberculosis, H37RA, read-out: Antimycobacterial Activity MIC Mtb H37Ra
[8] = Mycolicibacterium aurum; read-out: Antimycobacterial Activity MIC M. aurum
[9] = Mycolicibacterium smegmatis; read-out: Antimycobacterial Activity MIC M. smeg.
[10] = Mycobacterium avium; read-out: Antimycobacterial Activity MIC M. avium
[11] = Table S5 matching pairs series A and B
[12] = Mycolicibacterium aurum, read-out: Antimycobacterial Activity MIC M. aurum
[13] = Microplate Alamar Blue assay, read-out: Antimycobacterial Activity MIC Mtb H37Rv
[14] = read-out: Antimycobacterial Activity MIC Mtb H37Rv, Table S5 matching pairs series A and B
[15] = Mycobacterium avium, read-out: Antimycobacterial Activity MIC M. avium
[16] = Mycobacterium tuberculosis, H37RA; read-out: Antimycobacterial Activity MIC Mtb H37Ra
[17] = Mycolicibacterium smegmatis, read-out: Antimycobacterial Activity MIC M. smeg.

Row | Compound | MIC [1, 7] | MIC [4] | Antimycobacterial Activity MIC Mtb H37Ra [1] | Antimycobacterial Activity MIC M. aurum [2] | Antimycobacterial Activity MIC M. smeg. [3] | Antimycobacterial Activity MIC M. smeg. [3, 11] | Antimycobacterial Activity MIC Mtb H37Rv ([6]; Microplate Alamar Blue assay) | Antimycobacterial Activity MIC M. kans. [4] | Antimycobacterial Activity MIC M. avium [5] | MIC [2, 12] | MIC [6, 13] | MIC [5, 15] | MIC [3, 17] | further results
1 | O=C(O)c1cn(C2CC2)c2cc(N3CCNCC3)c(F)cc2c1=O [CIP, ciprofloxacin, reference compound] | 0.25 µg/mL (≈ 0.754 µM) | 0.25 µg/mL (≈ 0.754 µM) |  |  |  |  |  |  |  |  |  |  |  | MIC ([1]; Mycobacterium tuberculosis, H37RA; internal quality controls (standards); read-out: MINIMUM INHIBITORY CONCENTRATION Mycobacterium tuberculosis H37Ra): 0.125 to 0.25 µg/mL (≈ 0.377 to 0.754 µM); MIC ([2]; Mycolicibacterium aurum, DSM43999; internal quality controls (standards); read-out: MINIMUM INHIBITORY CONCENTRATION Mycolicibacterium aurum DSM 43999): 0.0078 to 0.0156 µg/mL (≈ 0.0235 to 0.0471 µM); MIC [2, 8]: 0.0156 µg/mL (≈ 0.0472 µM); MIC ([3]; Mycolicibacterium smegmatis, DSM43465; internal quality controls (standards); read-out: MINIMUM INHIBITORY CONCENTRATION Mycolicibacterium smegmatis DSM 43465): 0.0625 to 0.125 µg/mL (≈ 0.189 to 0.377 µM); MIC [3, 9]: 0.125 µg/mL (≈ 0.377 µM); MIC ([5]; Mycobacterium avium, DSM44156; internal quality controls (standards); read-out: MINIMUM INHIBITORY CONCENTRATION Mycobacterium avium DSM 44156): 0.5 µg/mL (≈ 1.51 µM); MIC [5, 10]: 1.56 µg/mL (≈ 4.71 µM)
2 | COc1ccc(Cn2c(C)nc3ccccc3c2=O)c(OC)c1 [Compound 1] |  |  | ≥500 µg/mL | ≥500 µg/mL | ≥500 µg/mL | ≥ 500 µg/mL | >100 µg/mL | >100 µg/mL | ≥500 µg/mL |  |  |  |  | Antimycobacterial Activity MIC Mtb H37Ra [1, 11]: ≥ 500 µg/mL; Antimycobacterial Activity MIC M. aurum [2, 11]: ≥ 500 µg/mL; Antimycobacterial Activity MIC M. avium [5, 11]: ≥ 500 µg/mL
3 | Cc1nc2ccccc2c(=O)n1Cc1cccc(F)c1 [Compound 4] |  |  | 250 µg/mL | 500 µg/mL | 250 µg/mL |  | 100 µg/mL | 50 µg/mL | 125 µg/mL |  |  |  |  | 
4 | Cc1nc2ccccc2c(=O)n1Cc1ccc(C(F)(F)F)cc1 [Compound 7] |  |  | 62.5 µg/mL | 125 µg/mL | 250 µg/mL | 250 µg/mL | >100 µg/mL | >100 µg/mL | 125 µg/mL |  |  |  |  | Antimycobacterial Activity MIC Mtb H37Ra [1, 11]: 62.5 µg/mL; Antimycobacterial Activity MIC M. aurum [2, 11]: 125 µg/mL; Antimycobacterial Activity MIC M. avium [5, 11]: 125 µg/mL
5 | Cc1nc2ccccc2c(=O)n1Cc1ccc2ccccc2c1 [Compound 8] | ≥ 250 µg/mL | 50 µg/mL (≈ 166 µM) | ≥250 µg/mL | 62.5 µg/mL |  | ≥ 500 µg/mL |  |  | 62.5 µg/mL | 62.5 µg/mL (≈ 208 µM) | > 100 µg/mL | 62.5 µg/mL (≈ 208 µM) |  | MIC [3, 9]: ≥ 500 µg/mL; MIC [6, 14]: > 100 µg/mL; Antimycobacterial Activity MIC M. kans. [4, 11]: 50 µg/mL
6 | Cc1nc2ccccc2c(=O)n1Cc1cc(F)cc(C(F)(F)F)c1 [Compound 9] |  |  | 125 µg/mL | 62.5 µg/mL | ≥500 µg/mL |  | >100 µg/mL | >100 µg/mL | 62.5 µg/mL |  |  |  |  | 
7 | Cc1nc2ccccc2c(=O)n1Cc1ccc(Cl)cc1Cl [Compound 10] |  |  | ≥250 µg/mL | ≥250 µg/mL | ≥250 µg/mL |  | >100 µg/mL | >100 µg/mL | ≥250 µg/mL |  |  |  |  | 
8 | CC1Nc2ccccc2C(=O)N1Cc1ccc(Cl)c(Cl)c1 (stereo not drawn) [Compound 11] | ≥ 250 µg/mL | > 100 µg/mL | ≥250 µg/mL |  |  | ≥ 250 µg/mL |  |  |  |  | > 100 µg/mL |  |  | MIC [2, 8]: ≥ 250 µg/mL; Antimycobacterial Activity MIC M. aurum [2, 11]: ≥ 250 µg/mL; MIC [3, 9]: ≥ 250 µg/mL; MIC [6, 14]: > 100 µg/mL; MIC [5, 10]: ≥ 250 µg/mL; Antimycobacterial Activity MIC M. avium [5, 11]: ≥ 250 µg/mL
9 | Cc1nc2cc(Cl)ccc2c(=O)n1Cc1cccc(C(=O)O)c1 [Compound 12] |  | > 100 µg/mL |  |  |  |  |  |  |  | ≥ 62.5 µg/mL | > 100 µg/mL | ≥ 62.5 µg/mL | ≥ 62.5 µg/mL | MIC [1, 16]: ≥ 62.5 µg/mL
10 | Cc1nc2cc(Cl)ccc2c(=O)n1Cc1cccc(O)c1 [Compound 13] |  | > 100 µg/mL |  |  |  |  |  |  |  | ≥ 62.5 µg/mL | 50 µg/mL (≈ 166 µM) |  | ≥ 62.5 µg/mL | MIC [1, 16]: ≥ 62.5 µg/mL; MIC [5, 10]: 62.5 µg/mL (≈ 208 µM)
11 | Cc1nc2cc(Cl)ccc2c(=O)n1Cc1ccc(O)cc1 [Compound 14] |  | > 100 µg/mL |  |  |  |  |  |  |  | 62.5 µg/mL (≈ 208 µM) | > 100 µg/mL | 62.5 µg/mL (≈ 208 µM) | 62.5 µg/mL (≈ 208 µM) | MIC [1, 16]: 62.5 µg/mL (≈ 208 µM)
12 | COc1ccc(Cn2c(C)nc3cc(Cl)ccc3c2=O)c(OC)c1 [Compound 15] | ≥ 125 µg/mL | > 100 µg/mL | ≥125 µg/mL | ≥125 µg/mL | ≥125 µg/mL |  |  |  | ≥125 µg/mL | ≥ 125 µg/mL | > 100 µg/mL | ≥ 125 µg/mL | ≥ 125 µg/mL | MIC [6, 14]: > 100 µg/mL
